We go through three compounds from patent US5075289A, “9-R-azacyclic erythromycin antibiotics” (priority 1988, dated 1991).

≈ marks a conversion by molar mass, not a printed value. Where two headings read alike, the source gives them in different places.

Holding throughout (assay type): cell-based
For experiment [1], the system named is Enterococcus faecium ATCC 8043. The experiment can be described thus: In vitro antibacterial activity, agar dilution MIC. Particulars: ATCC8043, E. faecium ATCC 8043, Brain Heart Infusion agar, 20-24 hours, read-out: MIC. How it is done: (§1) The antimicrobial spectra of a number of compounds of the invention were tested by the following method:
(§2) Twelve petri dishes containing successive aqueous dilutions of the test compound mixed with 10 ml of sterilized Brain Heart Infusion agar (Difco 0418-01-5) are prepared. Each plate is inoculated with 1:100 (or 1:10 for slow growing strains, primarily Micrococcus and Streptococcus) dilutions of up to 32 different microorganisms, using a Steers replicator block The inoculated plates are incubated at 35°-37° C. for 20-24 hours. In addition, a control plate, using BHI agar containing no test compound, is prepared and incubated at the beginning and end of each test.
(§3) An additional plate containing a compound having known susceptibility patterns for the organisms being tested and belonging to the same antibiotic class as the test compound is also prepared and incubated as a further control, as well as to provide test-to-test comparability. Erythromycin A was used for this purpose.
(§4) After incubation, each disk is read. The MIC is defined as the lowest concentration of drug yielding no growth, a slight haze, or sparsely isolated colonies on the inoculum spot as compared to the growth control.

In the next experiment the test system is Escherichia coli DC-2. Briefly: In vitro antibacterial activity, agar dilution MIC. The note with it: DC2, E. coli DC-2, Brain Heart Infusion agar, 20-24 hours, read-out: MIC. How it is done: as §1, §2, §3, §4
For another experiment, the system named is Escherichia coli H560. The experiment can be described thus: In vitro antibacterial activity, agar dilution MIC. How it is done: as §1, §2, §3, §4
The next experiment relates to Escherichia coli Juhl. The experiment can be described thus: In vitro antibacterial activity, agar dilution MIC. Particulars: E. coli Juhl, Brain Heart Infusion agar, 20-24 hours, read-out: MIC. How it is done:
as §1, §2, §3, §4
On the technique in general: Agar dilution tests growth on a series of plates holding different concentrations.

In another experiment the test system is Escherichia coli SS. The experiment can be described thus: In vitro antibacterial activity, agar dilution MIC. Particulars: E. coli SS, Brain Heart Infusion agar, 20-24 hours, read-out: MIC. How it is done:
as §1, §2, §3, §4

Experiment [2] relates to Micrococcus luteus ATCC 4698. The experiment can be described thus: In vitro antibacterial activity, agar dilution MIC. Particulars: ATCC4698, M. luteus ATCC 4698, Brain Heart Infusion agar, 20-24 hours, read-out: MIC. How it is done: as §1, §2, §3, §4
The test system of experiment [3] is Micrococcus luteus ATCC 9341. Briefly: In vitro antibacterial activity, agar dilution MIC. How it is done:
as §1, §2, §3, §4

In the next experiment the test system is Staphylococcus aureus 45. Briefly: In vitro antibacterial activity, agar dilution MIC. The note with it: S. aureus 45, Brain Heart Infusion agar, 20-24 hours, read-out: MIC. How it is done:
as §1, §2, §3, §4

The test system of experiment [4] is Staphylococcus aureus A5177. Briefly: In vitro antibacterial activity, agar dilution MIC. The note with it: S. aureus A5177, Brain Heart Infusion agar, 20-24 hours, read-out: MIC. How it is done:
as §1, §2, §3, §4

Experiment [5] concerns Staphylococcus aureus ATCC 6538P. Briefly: In vitro antibacterial activity, agar dilution MIC. Particulars: ATCC6538P, S. aureus ATCC 6538P, Brain Heart Infusion agar, 35-37° C., 20-24 hours, read-out: MIC. How it is done:
as §1, §2, §3, §4

For experiment [6], the system named is Staphylococcus aureus CMX 503A. The experiment can be described thus: In vitro antibacterial activity, agar dilution MIC. The note with it: CMX503A. How it is done:
as §1, §2, §3, §4

Experiment [7] deals with Staphylococcus aureus CMX 553. Briefly: In vitro antibacterial activity, agar dilution MIC. How it is done:
as §1, §2, §3, §4

For experiment [8], the system named is Staphylococcus aureus CMX 686B. Briefly: In vitro antibacterial activity, agar dilution MIC. The note with it: CMX686B. How it is done: as §1, §2, §3, §4
Experiment [9] concerns Staphylococcus epidermidis 3519. The experiment can be described thus: In vitro antibacterial activity, agar dilution MIC. The note with it: S. epidermidis 3519, Brain Heart Infusion agar, 20-24 hours, read-out: MIC. How it is done:
as §1, §2, §3, §4

The test system of experiment [10] is Streptococcus agalactiae CMX 508. Briefly: In vitro antibacterial activity, agar dilution MIC. The note with it: CMX508, S. agalactiae CMX 508, Brain Heart Infusion agar, 20-24 hours, read-out: MIC. How it is done:
as §1, §2, §3, §4

Experiment [11] deals with Streptococcus bovis A5169. Briefly: In vitro antibacterial activity, agar dilution MIC. How it is done:
as §1, §2, §3, §4

In experiment [12] the test system is Streptococcus pyogenes 2548 INDUC. Briefly: In vitro antibacterial activity, agar dilution MIC. The note with it: S. pyogenes 2548 INDUC, Brain Heart Infusion agar, 20-24 hours, read-out: MIC. How it is done:
as §1, §2, §3, §4

In experiment [13] the test system is Streptococcus pyogenes 930 CONST. Briefly: In vitro antibacterial activity, agar dilution MIC. How it is done: as §1, §2, §3, §4
Experiment [14] has as its system Streptococcus pyogenes EES61. The experiment can be described thus: In vitro antibacterial activity, agar dilution MIC. Particulars: S. pyogenes EES61, Brain Heart Infusion agar, 20-24 hours, read-out: MIC. How it is done:
as §1, §2, §3, §4

In experiment [15] the test system is Staphylococcus aureus 45 RAR 2. Briefly: microbe, parasite or virus in culture. The note with it: 45RAR2. How it is done: as §1, §2, §3, §4
Setting [16] is: E. coli H560, Brain Heart Infusion agar, 20-24 hours, read-out: MIC.
Where [17] appears, read: ATCC9341, M. luteus ATCC 9341, Brain Heart Infusion agar, 20-24 hours, read-out: MIC.
Setting [18] is: CMX553, S. aureus CMX 553, Brain Heart Infusion agar, 20-24 hours, read-out: MIC.
[19] abbreviates: S. bovis A5169, Brain Heart Infusion agar, 20-24 hours, read-out: MIC.

Turning to `CC[C@H]1OC(=O)[C@H](C)[C@@H](O[C@H]2C[C@@](C)(OC)[C@@H](O)[C@H](C)O2)[C@H](C)[C@@H](O[C@@H]2O[C@H](C)C[C@H](N(C)C)[C@H]2O)[C@](C)(O)C[C@@H](C)[C@@H](N2CCCC2)[C@H](C)[C@@H](O)[C@]1(C)O` [Example 3], the MIC in experiment [1] was 0.39 µg/mL (≈ 0.494 µM); with Escherichia coli DC-2 it was 100 µg/mL (≈ 127 µM); with Escherichia coli H560 (setting [16]) it was 50 µg/mL (≈ 63.4 µM); in the experiment on Escherichia coli Juhl it was more than 100 µg/mL; in the experiment with Escherichia coli SS it was 0.39 µg/mL (≈ 0.494 µM); in experiment [2] it was 0.78 µg/mL (≈ 0.989 µM). Moreover, the MIC in experiment [3] (setting [17]) was 0.39 µg/mL (≈ 0.494 µM); in the experiment with Staphylococcus aureus 45, 0.78 µg/mL (≈ 0.989 µM); in [4], 25 µg/mL (≈ 31.7 µM); in experiment [5], 1.56 µg/mL (≈ 1.98 µM); in [6] it was 1.56 µg/mL (≈ 1.98 µM); in experiment [7] (setting [18]) it was 1.56 µg/mL (≈ 1.98 µM). Also, the MIC in [8] was 1.56 µg/mL (≈ 1.98 µM); in experiment [9], 1.56 µg/mL (≈ 1.98 µM); in experiment [10], 0.2 µg/mL (≈ 0.253 µM); in experiment [11] (setting [19]), 0.1 µg/mL (≈ 0.127 µM); in experiment [12], 50 µg/mL (≈ 63.4 µM); in experiment [13] (S. pyogenes 930 CONST, Brain Heart Infusion agar, 20-24 hours, read-out: MIC), more than 100 µg/mL. Besides, the MIC in experiment [14] came to 0.1 µg/mL (≈ 0.127 µM); in experiment [15] it was 1.56 µg/mL (≈ 1.98 µM).

Consider `CC[C@H]1OC(=O)[C@H](C)[C@@H](O[C@H]2C[C@@](C)(OC)[C@@H](O)[C@H](C)O2)[C@H](C)[C@@H](O[C@@H]2O[C@H](C)C[C@H](N(C)C)[C@H]2O)[C@](C)(O)C[C@@H](C)[C@@H](N2CCNCC2)[C@H](C)[C@@H](O)[C@]1(C)O` [Example 15], for which the MIC in [1] was 12.5 µg/mL (≈ 15.5 µM); with Escherichia coli DC-2 it was more than 100 µg/mL; in the experiment on Escherichia coli H560 (setting [16]) it was 100 µg/mL (≈ 124 µM); in the experiment on Escherichia coli Juhl, more than 100 µg/mL; with Escherichia coli SS, 1.56 µg/mL (≈ 1.94 µM); in experiment [2], 12.5 µg/mL (≈ 15.5 µM). Further, the MIC was 3.1 µg/mL (≈ 3.86 µM) in experiment [3] (setting [17]); 12.5 µg/mL (≈ 15.5 µM) with Staphylococcus aureus 45; more than 100 µg/mL in experiment [4]; 3.1 µg/mL (≈ 3.86 µM) in [5]; 6.2 µg/mL (≈ 7.71 µM) in [6]; 6.2 µg/mL (≈ 7.71 µM) in experiment [7] (CMX553). Besides, the MIC in experiment [8] was 6.2 µg/mL (≈ 7.71 µM); in [9], 6.2 µg/mL (≈ 7.71 µM); in experiment [10], 1.56 µg/mL (≈ 1.94 µM); in [11] (setting [19]) it was 1.56 µg/mL (≈ 1.94 µM); in [12], 100 µg/mL (≈ 124 µM); in [13] (930CONST) it was more than 100 µg/mL. Moreover, the MIC was found to be 1.56 µg/mL (≈ 1.94 µM) in experiment [14] and 12.5 µg/mL (≈ 15.5 µM) in [15].

As for `CC[C@H]1OC(=O)[C@H](C)[C@@H](O[C@H]2C[C@@](C)(OC)[C@@H](O)[C@H](C)O2)[C@H](C)[C@@H](O[C@@H]2O[C@H](C)C[C@H](N(C)C)[C@H]2O)[C@](C)(O)C[C@@H](C)[C@@H](N2CCN(C(C)=O)CC2)[C@H](C)[C@@H](O)[C@]1(C)O` [Example 16], the MIC in [1] is 0.78 µg/mL (≈ 0.922 µM); in the experiment with Escherichia coli DC-2, more than 100 µg/mL; with Escherichia coli H560 (H560), 50 µg/mL (≈ 59.1 µM); in the experiment on Escherichia coli Juhl, more than 100 µg/mL; in the experiment on Escherichia coli SS it was 1.56 µg/mL (≈ 1.84 µM); in [2], 1.56 µg/mL (≈ 1.84 µM). Besides, the MIC in experiment [3] (ATCC9341, read-out: MIC) amounted to 0.2 µg/mL (≈ 0.236 µM); with Staphylococcus aureus 45, 1.56 µg/mL (≈ 1.84 µM); in experiment [4] it was 50 µg/mL (≈ 59.1 µM); in experiment [5], 1.56 µg/mL (≈ 1.84 µM); in [6] (S. aureus CMX 503A, Brain Heart Infusion agar, 20-24 hours, read-out: MIC), 1.56 µg/mL (≈ 1.84 µM); in [7] (setting [18]) it was 1.56 µg/mL (≈ 1.84 µM). Besides, the MIC was 1.56 µg/mL (≈ 1.84 µM) in experiment [8] (S. aureus CMX 686B, Brain Heart Infusion agar, 20-24 hours, read-out: MIC); 1.56 µg/mL (≈ 1.84 µM) in experiment [9]; 0.39 µg/mL (≈ 0.461 µM) in [10]; 0.1 µg/mL (≈ 0.118 µM) in [11]; 50 µg/mL (≈ 59.1 µM) in experiment [12]; more than 100 µg/mL in [13] (930CONST). Also, the figures for the MIC in experiment [14] and in [15] were 0.1 µg/mL (≈ 0.118 µM) and 3.1 µg/mL (≈ 3.66 µM), respectively.
